Measurements as given in US8598365B2, “Herbicides” (Syngenta Limited, priority 2007, dated 2013).

Assays:
Type in all cases: in vivo
[1] = tested on: Alopecurus myosuroides (ALOMY); experiment: Example B pre-emergence herbicidal activity; conditions: 312 h, rate 250 g/ha, evaluated after 13 days, read-out: Pre-Emergence Activity ALOMY (100=total damage to plant; 0=no damage to plant)
Method in brief: (§1)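 Glasshouse pot test, 24/16 °C, 14 h light, 65% RH, watered twice daily. Spray timing: day 1 pre-em., day 8 post-em.; vehicle acetone/water 50:50 + 0.5% Tween 20. Readout 13 d, 0–100% damage.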

[2] = tested on: Amaranthus retoflexus (AMARE); experiment: Example B pre-emergence herbicidal activity; conditions: Amaranthus retroflexus, 312 h, rate 250 g/ha, evaluated after 13 days, read-out: Pre-Emergence Activity AMARE (100=total damage to plant; 0=no damage to plant)
Method in brief: as §1

[3] = tested on: Avena fatua (AVEFA); experiment: Example B pre-emergence herbicidal activity; conditions: 312 h, rate 250 g/ha, evaluated after 13 days, read-out: Pre-Emergence Activity AVEFA (100=total damage to plant; 0=no damage to plant)
Method in brief: as §1

[4] = tested on: Echinochloa crus-galli (ECHCG); experiment: Example B pre-emergence herbicidal activity; conditions: 312 h, rate 250 g/ha, evaluated after 13 days, read-out: Pre-Emergence Activity ECHCG (100=total damage to plant; 0=no damage to plant)
Method in brief: as §1

[5] = tested on: Setaria faberi (SETFA); experiment: Example B pre-emergence herbicidal activity; conditions: 312 h, rate 250 g/ha, evaluated after 13 days, read-out: Pre-Emergence Activity SETFA (100=total damage to plant; 0=no damage to plant)
Method in brief: as §1

[6] = tested on: Alopecurus myosuroides (ALOMY); experiment: Example B post-emergence herbicidal activity; conditions: 312 h, rate 250 g/ha, evaluated after 13 days, read-out: Post-emergence activity ALOMY (100=total damage to plant; 0=no damage to plant)
Method in brief: as §1

[7] = tested on: Amaranthus retoflexus (AMARE); experiment: Example B post-emergence herbicidal activity; conditions: Amaranthus retroflexus, 312 h, rate 250 g/ha, evaluated after 13 days, read-out: Post-emergence activity AMARE (100=total damage to plant; 0=no damage to plant)
Method in brief: as §1

[8] = tested on: Avena fatua (AVEFA); experiment: Example B post-emergence herbicidal activity; conditions: 312 h, rate 250 g/ha, evaluated after 13 days, read-out: Post-emergence activity AVEFA (100=total damage to plant; 0=no damage to plant)
Method in brief: as §1

[9] = tested on: Echinochloa crus-galli (ECHCG); experiment: Example B post-emergence herbicidal activity; conditions: 312 h, rate 250 g/ha, evaluated after 13 days, read-out: Post-emergence activity ECHCG (100=total damage to plant; 0=no damage to plant)
Method in brief: as §1

[10] = tested on: Setaria faberi (SETFA); experiment: Example B post-emergence herbicidal activity; conditions: 312 h, rate 250 g/ha, evaluated after 13 days, read-out: Post-emergence activity SETFA (100=total damage to plant; 0=no damage to plant)
Method in brief: as §1

SMILES | pest or weed control at 250 g/ha [1] | pest or weed control at 250 g/ha [2] | pest or weed control at 250 g/ha [3] | pest or weed control at 250 g/ha [4] | pest or weed control at 250 g/ha [5] | pest or weed control at 250 g/ha [6] | pest or weed control at 250 g/ha [7] | pest or weed control at 250 g/ha [8] | pest or weed control at 250 g/ha [9] | pest or weed control at 250 g/ha [10]
CSc1ccc(-c2nc(C3C(=O)[C@@H]4CC[C@@H](C4)C3=O)c(C)s2)cc1 (stereo partly drawn) [Compound T81] | 50% | 0% | 40% | 100% | 100% | 50% | 0% | 50% | 100% | 100%
Cc1sc(-c2ccc([S+](C)[O-])cc2)nc1C1C(=O)[C@@H]2CC[C@@H](C2)C1=O (stereo partly drawn) [Compound T82] | 0% | 0% | 0% | 40% | 80% | 20% | 30% | 0% | 100% | 100%
CCc1sc(-c2ccc(SC)cc2)nc1C1C(=O)[C@@H]2CC[C@@H](C2)C1=O (stereo partly drawn) [Compound T83] | 50% | 0% | 0% | 100% | 90% | 60% | 0% | 100% | 100% | 100%
Cc1sc(-c2ccc(OC(F)F)cc2Cl)nc1C1C(=O)[C@@H]2CC[C@@H](C2)C1=O (stereo partly drawn) [Compound T84] | 70% | 0% | 40% | 100% | 100% | 90% | 40% | 70% | 100% | 100%
Cc1sc(-c2ccc(C(C)C)cc2)nc1C1C(=O)[C@@H]2CC[C@@H](C2)C1=O (stereo partly drawn) [Compound T87] | 20% | 20% | 50% | 60% | 60% | 50% | 0% | 60% | 90% | 90%
Cc1cnc(-c2ccc(Cl)cc2)nc1C1C(=O)[C@@H]2CC[C@@H](C2)C1=O (stereo partly drawn) [Compound T88] | 0% | 0% | 0% | 60% | 80% | 10% | 0% | 0% | 90% | 70%
Cc1sc(-c2ccc(OC(F)F)cc2F)nc1C1C(=O)[C@@H]2CC[C@@H](C2)C1=O (stereo partly drawn) [Compound T92] | 70% | 0% | 90% | 100% | 100% | 100% | 10% | 100% | 100% | 100%
CCc1sc(-c2ccccc2)nc1C1C(=O)[C@@H]2CC[C@@H](C2)C1=O (stereo partly drawn) [Compound T93] | 20% | 0% | 0% | 40% | 20% | 30% | 0% | 0% | 70% | 70%
CCc1sc(-c2ccc(C(F)(F)F)cc2)nc1C1C(=O)[C@@H]2CC[C@@H](C2)C1=O (stereo partly drawn) [Compound T96] | 80% | 0% | 100% | 100% | 100% | 100% | 30% | 100% | 100% | 100%
CCc1sc(-c2ccc3ccccc3c2)nc1C1C(=O)[C@@H]2CC[C@@H](C2)C1=O (stereo partly drawn) [Compound T99] | 50% | 20% | 30% | 60% | 60% | 100% | 0% | 100% | 100% | 100%
CCc1sc(-c2cc(F)c(OC)cc2F)nc1C1C(=O)[C@@H]2CC[C@@H](C2)C1=O (stereo partly drawn) [Compound T102] | 50% | 0% | 30% | 70% | 50% | 100% | 0% | 100% | 100% | 100%
CCc1sc(-c2ccc(F)cc2F)nc1C1C(=O)[C@@H]2CC[C@@H](C2)C1=O (stereo partly drawn) [Compound T104] | 70% | 0% | 20% | 100% | 50% | 100% | 0% | 90% | 100% | 100%
CCc1sc(-c2ccccc2Cl)nc1C1C(=O)[C@@H]2CC[C@@H](C2)C1=O (stereo partly drawn) [Compound T106] | 0% | 0% | 0% | 10% | 20% | 10% | 0% | 0% | 30% | 70%
CCc1sc(-c2cnc(Cl)cc2C)nc1C1C(=O)[C@@H]2CC[C@@H](C2)C1=O (stereo partly drawn) [Compound T110] | 30% | 20% | 30% | 60% | 100% | 60% | 0% | 70% | 90% | 100%
CCc1sc(-c2ccc(OC)c(F)c2)nc1C1C(=O)[C@@H]2CC[C@@H](C2)C1=O (stereo partly drawn) [Compound T111] | 50% | 0% | 90% | 100% | 80% | 100% | 0% | 100% | 100% | 100%
